{"source": "patent US11708330B2", "about": "“Compounds, compositions, methods for treating diseases, and methods for preparing compounds” (UNIVERSITY OF LOUISVILLE RESEARCH FOUNDATION, INC., priority 2017, dated 2023)", "key": {"[1]": {"target": "recombinant human PFKFB4 protein (Homo sapiens, UniProt Q16877)", "sequence (Q16877 whole entry)": "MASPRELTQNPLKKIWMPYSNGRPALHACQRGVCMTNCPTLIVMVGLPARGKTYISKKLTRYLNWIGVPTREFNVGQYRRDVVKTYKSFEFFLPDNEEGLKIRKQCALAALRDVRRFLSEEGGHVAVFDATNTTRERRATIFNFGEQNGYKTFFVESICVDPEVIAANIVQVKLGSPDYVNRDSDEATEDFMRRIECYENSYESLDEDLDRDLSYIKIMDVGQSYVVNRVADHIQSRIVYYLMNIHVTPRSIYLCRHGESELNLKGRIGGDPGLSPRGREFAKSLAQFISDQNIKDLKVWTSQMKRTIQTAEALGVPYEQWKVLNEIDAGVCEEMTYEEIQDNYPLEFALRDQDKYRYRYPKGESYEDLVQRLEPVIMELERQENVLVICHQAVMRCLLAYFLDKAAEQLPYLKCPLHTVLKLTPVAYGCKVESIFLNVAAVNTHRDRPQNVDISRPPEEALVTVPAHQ", "assay": "ADP-Glo kinase assay of recombinant PFKFB4", "type": "biochemical", "settings": "decrease in luminescence relative to DMSO (FIG. 1)", "procedure": "The efficacy of the compound Formula (I) in inhibiting the activity of the PFKFB4 enzyme was tested by examination of the effect of Formula (I) on the kinase activity of recombinant PFKFB4 enzyme in the ADP-Glo assay.\nThe efficacy of Formula (I) in inhibition of the kinase activity of the PFKFB4 enzyme was examined by exposing recombinant human PFKFB4 protein to Formula (I) in the ADP-Glo kinase assay (Promega) which measures ADP formed through a kinase reaction. Briefly, recombinant protein, ATP, substrate and Formula (I) were incubated together for the kinase reaction followed by the addition of ADP-Glo reagent, used to terminate the kinase reaction. Lastly, a kinase detection reagent was added to convert the newly formed ADP to ATP which was measured by a luciferase reaction. Data are shown in FIG. 1 as the decrease in luminescence caused by Formula (I) relative to DMSO. Decrease in Cell Proliferation by Formula (I) (Also Referred to as FBR1-12): […]"}, "human cancer cell lines": {"system": "human cancer cell lines", "assay": "Cell proliferation, viable cell counts by Trypan blue exclusion", "type": "cell-based", "settings": "increasing concentrations; cell counts relative to DMSO, representative counts at 48 hours (FIG. 2); compared with SMPN", "procedure": "The effect of increasing concentrations of Formula (I) on the proliferation of human cancer cells was examined in vitro. […] Data in FIG. 2 are shown as the decrease in cell counts relative to the DMSO (vehicle) control.\nMethod: Cells were plated in 24 well plates and exposed to increasing concentrations of Formula (I). DMSO was used as a vehicle. After 24, 48 and 72 hours of exposure, cells were detached, and viable cells were counted by Trypan blue exclusion (representative counts at 48 hours shown)."}, "cancer cells [2]": {"system": "cancer cells", "assay": "Intracellular fructose-2,6-bisphosphate (F26BP) in cells", "type": "cell-based", "settings": "increasing concentrations; two independently run experiments (FIG. 3A, 3B)", "procedure": "The ability of Formula (I) to inhibit the activity of the PFKFB4 enzyme in cells was measured by examining the effect of the inhibitor on the levels of the product of the PFKFB4 enzyme, fructose-2,6-bisphosphate (F26BP). […] Data in FIG. 3 are shown as the concentration of intracellular F26BP normalized to cellular protein concentration.\nIn order to measure F26BP, cells were exposed to increasing concentrations of Formula (I) and were harvested, washed with PBS, lysed in NaOH/Tris acetate by heating at 80° C. and lysates neutralized to pH 7.2. F26BP content was measured using a coupled enzyme reaction following the method of Van Schaftingen (VAN SCHAFTINGEN et al, “A kinetic study of pyrophosphate: fructose-6-phosphate phosphotransferase from potato tubers. Application to a microassay of fructose 2,6-bisphosphate” Eur J Biochem. (1982) Vol. 129, No. 1, pp. 191-195), which is herein incorporated by reference in its entirety. The F26BP concentration was normalized to total cellular protein measured by the bicinchoninic acid assay (BCA, Thermo Scientific)."}, "cancer cells [3]": {"system": "cancer cells", "assay": "Glycolysis in cells, 3H2O production from 5-[3H]glucose", "type": "cell-based", "settings": "two independently run experiments (FIG. 4A, 4B)", "text": "The effect of Formula (I) on the glycolytic pathway was examined to determine the ability of this inhibitor to decrease glycolysis secondary to its effect on PFKFB4-driven F26BP production. PFKFB4 produces F26BP which activates a rate-limiting enzyme of the glycolytic pathway, […] (PFK-1). […] Data in FIG. 4A and FIG. 4B are shown as the production of ^3H2O by Formula (I) relative to DMSO and normalized to protein concentration.\nMethod: To examine glycolysis, cells growing in 6-well plates were incubated in 500 μl of complete medium containing 1 μCi of […] per well for 60 min in 5% CO2 at 37° C. The medium was then collected and centrifuged to pellet any suspended cells. […] The amounts of ^3H2O that had diffused into the surrounding H2O was measured on a Tri-Carb 2910 liquid scintillation analyzer (Perkin Elmer) and compared with ^3H2O and 5-[^3H]glucose standards. Protein concentration was determined using the BCA assay and counts were normalized to protein concentration (previously described in CHESNEY et al., “Fructose-2,6-bisphosphate synthesis by 6-phosphofructo-2-kinase/fructose-2,6-bisphosphatase 4 (PFKFB4) is required for the glycolytic response to hypoxia and tumor growth” Oncotarget (2014) Vol. 5, No. 16, pp. 6670-6686, which is herein incorporated by reference in its entirety)."}, "cancer cells [4]": {"system": "cancer cells", "assay": "Intracellular ATP, bioluminescence assay", "type": "cell-based", "settings": "two independently run experiments (FIG. 5A, 5B)", "procedure": "The effect of Formula (I) on the production of ATP was examined as a measure of its effect on energy production by the glycolytic pathway.\nTo measure ATP, cells were washed (while still adherent) with cold PBS, lysed with Passive Lysis Buffer (Molecular Probes, Invitrogen) added directly to the plates, and immediately harvested by scraping. The lysates were flash frozen (to −80° C.) and thawed (to 37° C.) once to accomplish complete lysis and then centrifuged to clear the lysates. Intracellular ATP levels were determined using a bioluminescence assay (Molecular Probes), utilizing luciferase and its substrate, D-luciferin and ATP values were calculated using an ATP standard curve. The ATP concentration was normalized to protein concentration that was estimated using the BCA assay."}, "cancer cells [5]": {"system": "cancer cells", "assay": "Anchorage independent growth as colonies in soft agar", "type": "cell-based", "settings": "increasing concentrations; compared with DMSO (FIG. 6)", "procedure": "We examined the ability of Formula (I) to inhibit the anchorage independent growth of cancer cells in vitro as colonies in soft agar. […] Representative images are shown in FIG. 6A, and colonies formed were enumerated. The number of colonies formed in the presence of Formula (I) was compared with those formed in the presence of the vehicle, DMSO (FIG. 6B).\nCancer cells were plated in soft agar and the effects of increasing concentrations of Formula (I) on anchorage independent growth was examined Briefly, a feeder layer of 0.6% agarose (Agar Noble, Becton Dickinson) in RPMI with 10% fetal bovine serum was plated in 6 cm plates containing vehicle (DMSO) or increasing concentrations of Formula (I). 1×10^4 cells were re-suspended in 0.3% agarose in RPMI/10% serum containing DMSO or increasing concentrations of Formula (I) and plated on top of the feeder layer. Cells were allowed to grow at 37° C. in 5% CO2 and agarose-containing media with DMSO+/−Formula (I) was replenished every 5 days until colonies became visible. Colonies were stained with MTT [3-(4,5-dimethylthiazol-2-yl)-2,5-diphenyl tetrazolium bromide] and counted in four random 1 cm^2 areas per plate under 40× magnification and enumerated."}, "[6]": {"system": "Lewis lung carcinoma cells", "assay": "Tumor growth in vivo, syngeneic Lewis lung carcinoma model", "design": "species or system C57BL/6 mice", "settings": "daily oral 40 mg/kg in DMSO, 9 days, established tumors ~150-200 mg (FIG. 8)", "text": "The efficacy of Formula (I) in decreasing the growth of tumors in vivo was examined Mice were implanted with Lewis lung carcinoma cells and after tumors were noted, dosed daily with DMSO±Formula (I) by gavage and tumor growth followed. […] Data shown as mean±SEM for each timepoint. C57BL/6 mice (Charles River) were implanted with 1×10^6 Lewis lung carcinoma cells subcutaneously and, after tumors developed, were followed by caliper measurements daily to quantify tumor mass using the formula: tumor mass=(length×width^2)/2. When tumors were ˜150-200 mg, mice were randomized to daily oral DMSO±Formula (I) (n=10/group) at 40 mg/kg in 50 μL DMSO and tumor growth followed×9 days. (* signifies statistical significance)"}, "[7]": {"system": "subcutaneous Lewis lung carcinoma tumors", "assay": "Tumor glucose uptake in vivo by FDG-PET", "design": "species or system C57BL/6 mice", "settings": "40 mg/kg PO x1, PET 60 minutes after dose, versus vehicle (FIG. 9)", "procedure": "The efficacy of Formula (I) to decrease tumor glucose uptake was examined by positron emission tomography (PET) following ^18F-fluoro-2-deoxy-glucose (FDG) injection. […] Method: FDG-PET was conducted on tumor-bearing mice to determine acute effects of Formula (I) on glucose uptake. C57BL/6 mice (Charles River) with subcutaneous Lewis lung carcinoma tumors were injected intraperitoneally with 100 μCi of ^18F-fluoro-2-deoxy-glucose under isoflurane anesthesia and subjected to a 15-minute static scan 45 minutes after tracer injection at baseline. Twenty-four hours later, the same animals were administered vehicle (DMSO) or Formula (I) (in DMSO, 40 mg/kg, PO×1), and, after 60 minutes, FDG uptake determined by PET scan. Tumor/cerebellum ROI (regions of interest) were quantified, representative sagittal cuts from mice are shown with arrows showing the tumors on the animals. (* signifies statistical significance)."}}}
{"smiles": "COc1cccc2c(NCCCCCNC(=O)C(F)(F)F)ccnc12", "note": "[Formula (I), 2,2,2-trifluoro-N-(5-((8-methoxyquinolin-4-yl)amino)pentyl)acetamide]", "values": [{"measurement": "kinase activity of the PFKFB4 enzyme", "setting": "[1]", "result": "inhibited the kinase activity of the PFKFB4 enzyme"}, {"measurement": "proliferation of human cancer cell lines", "setting": "human cancer cell lines", "result": "decreases the proliferation of human cancer cell lines in vitro with higher potency than SMPN"}, {"measurement": "intracellular F26BP normalized to cellular protein concentration", "setting": "cancer cells [2]", "result": "dose-dependent decrease in F26BP in cancer cells"}, {"measurement": "glycolysis, production of 3H2O relative to DMSO normalized to protein concentration", "setting": "cancer cells [3]", "result": "dose-dependent decrease in glycolysis in cancer cells"}, {"measurement": "production of ATP normalized to protein concentration", "setting": "cancer cells [4]", "result": "dose-dependent decrease in the production of ATP by cancer cells"}, {"measurement": "anchorage independent growth, soft agar colonies", "setting": "cancer cells [5]", "result": "inhibited the growth of cancer cells as soft agar colonies"}, {"measurement": "tumor growth (tumor mass)", "setting": "[6]", "result": "decreased established tumor growth in a syngeneic mouse tumor model"}, {"measurement": "tumor FDG uptake (tumor/cerebellum ROI)", "setting": "[7]", "result": "caused a decrease in tumor FDG uptake compared with vehicle"}]}
